According to patent US20110319352A1, “Compounds That Bind Oxysterol Binding Proteins, and Methods of Use Thereof” (President and Fellows of Harvard College, priority 2008, published 2011):

Legend:
normal lymphocytes = conditions: cited from earlier work
[1] = test system: HCT-116 p21−/− cells with siRNA knockdown of p53; test: GI50 after siRNA knockdown of p53; type: cell-based; conditions: data not shown
Excerpt: (§1) [5] […] This shared p21 differential cytotoxicity supports the idea of a common CRAM mechanism of action and likely similar target. […] However, caution has to be exercised in concluding that compounds found to be selective for p21 deficient HCT-116 cells are truly synthetic lethal with p21. It was recently reported that compounds shown to be hypersensitive to HCT-116 p21^−/− cells was actually due to an overexpression of p53 in that cell line. Subsequent siRNA knockdown of p53 eliminated the apparent p21 synthetic lethality.

HCT-116 p21−/− cells = test: growth inhibition of HCT-116 cells lacking p21 (p21 dependence); type: cell-based
Excerpt: Values are mean±SD of 3 individual experiments each performed in sextublicate or from a single experiment performed in sextublicate. Values for […] were reported in the literature (see Beutler J A, Shoemaker R H, Johnson T, Boyd M R. “Cytotoxic geranyl stilbenes from Macaranga schweinfurthii,” J. Nat. Prod. 1998, 61(12), 1509-12).
as §1

recombinant OSBP-myc-his = target: T1, recombinant OSBP-myc-his (Homo sapiens, UniProt P22059); test: competitive binding assay, displacement of [3H]-25-OHC from OSBP (charcoal-dextran, liquid scintillation counting); conditions: 20 nM [3H]-25-OHC, OSBP-myc-his S100 lysate (HEK-293T), 16 h at 4° C.; read-out: Ki, displacing OSBP-bound [3H]-25-OHC
T1 construct: made in house; host or cells: HEK-293T (crude S100 lysate, not purified)
T1 sequence (P22059 1-807): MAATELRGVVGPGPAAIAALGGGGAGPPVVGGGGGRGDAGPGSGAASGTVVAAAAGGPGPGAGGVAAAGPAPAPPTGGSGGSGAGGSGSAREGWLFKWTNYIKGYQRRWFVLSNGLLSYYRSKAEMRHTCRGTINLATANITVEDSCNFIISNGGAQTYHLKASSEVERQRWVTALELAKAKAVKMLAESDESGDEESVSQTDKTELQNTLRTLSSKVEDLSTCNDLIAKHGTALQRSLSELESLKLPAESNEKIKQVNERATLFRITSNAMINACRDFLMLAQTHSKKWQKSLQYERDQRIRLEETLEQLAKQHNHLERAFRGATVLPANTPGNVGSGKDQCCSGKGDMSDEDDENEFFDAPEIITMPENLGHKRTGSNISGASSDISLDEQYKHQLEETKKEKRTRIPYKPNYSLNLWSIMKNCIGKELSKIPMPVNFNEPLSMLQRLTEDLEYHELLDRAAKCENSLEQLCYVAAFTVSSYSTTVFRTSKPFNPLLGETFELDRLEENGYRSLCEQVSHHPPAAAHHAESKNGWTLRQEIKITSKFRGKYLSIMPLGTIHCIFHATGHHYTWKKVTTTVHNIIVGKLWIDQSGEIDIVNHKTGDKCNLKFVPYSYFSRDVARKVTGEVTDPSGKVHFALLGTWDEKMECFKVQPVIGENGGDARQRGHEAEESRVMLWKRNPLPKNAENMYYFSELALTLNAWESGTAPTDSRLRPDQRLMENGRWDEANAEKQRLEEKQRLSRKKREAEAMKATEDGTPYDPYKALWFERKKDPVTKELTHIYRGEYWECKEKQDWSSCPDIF
Description: It has been determined that CRAMs inhibit the binding of radiolabelled 25-OHC ([^3H]-25-OHC) to recombinant OSBP-myc-his and ORP4-myc-his overexpressed in HEK-293T lysate (FIG. 18). It is known that 25-hydroxycholesterol is a high affinity ligand for OSBP and ORP4. Increasing concentrations of CRAMs or OSW-1 analogs were incubated with 20 nM [^3H]-25-OHC in OSBP-myc-his or ORP4-myc-his S100 lysate for 16 h at 4° C. after which unbound sterol was removed using charcoal-dextran and the bound sterol quantified by LCS (liquid scintillation counting).
These experiments provide evidence that CRAMs are ligands of OSBP and ORP4, and in the case of 1 and 2, they are high affinity ligands.
To measure the Kis of CRAMs to OSBP and ORP4 reported above, a previously reported dextran-coated charcoal assay was adapted into a 96-well format. […] To solve these limitations a binding SPA (scintillation proximity assay) for OSBP/ORPs (FIG. 26) will be developed.

[2] = test system: OSBP localization in HCT-116 p21+/+ cells; test: OSBP localization by immunofluorescence confocal microscopy; type: cell-based; conditions: compound exposure 4 h (OSW-1 1 nM)
Description: FIG. 22 depicts OSBP localization in HCT-116 p21^+/+ cells imaged by immunofluorescence confocal microscopy. Immunofluorescence was used to image OSBP and the trans-Golgi protein p230 after compound exposure for 4 h. […] was labeled with Hoescht 33342.
As another way to investigate how CRAMs may affect OSBP, immunofluorescence (IF) experiments were performed in HCT-116 p21^+/+ cells to determine whether OSBP localization was altered upon treatment with different CRAMs. In untreated cells, OSBP resides largely at ER/cytoplasmic sites with a partial localization at the Golgi (FIG. 22A).
This translocation has been reported many times in the literature as an effect of 25-OHC on OSBP. Treatment of cells with OSW-1 at 1 nM for 4 h caused a dramatic and unprecedented effect on OSBP localization (FIG. 22C). […] In this case p230 has been dispersed (see […]). The translocation of OSBP induced by 2 is distinct from that of 25-OHC. […] They also reveal that the effects on OSBP translocation by 1 and 2 are distinct from 25-OHC.

P388 tumor cells = conditions: single i.p. treatment of 0.01 mg/kg; cited from earlier work
[3] = test system: HCT-116 p21−/− shNT and shOSBP cells; test: CRAM cytotoxicity after shRNA knockdown of OSBP, HCT-116 p21−/−; type: cell-based; conditions: OSBP knocked down by 89% (FIG. 8)
NCI-60 = conditions: read-out: GI50, average against the NCI-60; cited from earlier work

COc1ccc(C(=O)O[C@H]2[C@H](O[C@@H]3[C@@H](OC(C)=O)[C@H](O[C@H]4C[C@H]5[C@@H]6CC=C7C[C@@H](O)CC[C@]7(C)[C@H]6CC[C@]5(C)[C@@]4(O)[C@H](C)C(=O)CCC(C)C)OC[C@@H]3O)OC[C@@H](O)[C@@H]2O)cc1 [OSW-1]
GI50 (normal lymphocytes): 1.73 nM
GI50 after siRNA knockdown of p53 [1]: does not alter the GI50
differential GI50, HCT-116 p21−/− versus p21+/+ (HCT-116 p21−/− cells; 48 h (FIG. 14)): 72 fold
dependence of growth inhibition on p21 status (HCT-116 p21−/− cells; HCT-116 p21−/− versus p21+/+): selectively growth inhibitory to p21-deficient cells
Ki (recombinant OSBP-myc-his): 21 nM
effect on OSBP localization [2]: OSBP to shift from the cytoplasm to a tight cis/medial Golgi site
increased life span (P388 tumor cells): 59%
more sensitive after OSBP knockdown [3]: 5.7 ×
GI50 (NCI-60): 0.78 nM
